Six molecules from patent US8802635B2, “Antioxidant, anti-inflammatory, anti-radiation, metal chelating compounds and uses thereof” (Oneday—Biotech And Pharma Ltd., priority 2011, dated 2014) can be followed below.

Starred links: 1 amine or outer side, 2 acyl side, 3 side chain; linkers in the order of their positions; H or OH if unused. Non-standard residues stand in square brackets, D forms with d. γGlu = O=C(O)[C@H](CCC(=O)[*:2])N[*:1]

For data set [1], the system named is alanine aminotransferase (ALT) in plasma / liver necrosis. In words: Concanavalin A-induced liver inflammation in C57BL/6 mice. It is filed as in vivo. The conditions noted are these: ConA dose 180 μg/mouse. The protocol: Six groups of C57BL/6 female mice (7-8 weeks old) containing 6 mice in each group were injected i.p. with different peptide on days −3, −2, −1 at a dose of 50 mg/kg or with PBS alone. On day zero all the mice were injected i.v. with 250 μg/mouse of Con A and 45 min. later they were injected i.p. with 150 mg/kg of each peptide or PBS.
Eight hours after Con A injection mice were bled into heparinized tubes (approx. 150 ul of blood from each mouse) and the levels of alanine aminotransferase (ALT) was measured in the plasma.
One day later the mice were sacrificed and their livers were placed in 4% formalin and sent for pathological examination.
Next, peptide DY-66 was examined and compared to N-acetylcysteine (NAC), CB3 and CB4. The compounds were tested according to the procedure described above. ConA dose was 180 μg/mouse.
FIG. 8 presents the change in ALT levels (%) for each of the tested compounds compared to PBS treatment (i.e., the ratio between ALT levels in samples obtained from mice treated with a tested compound and ALT levels in samples obtained from PBS-treated mice)

Data set [2] has as its system malondialdehyde (MDA) in lung tissue. In words: MDA (lipid peroxidation) in lung, zymosan-induced inflammation. It is filed as in vivo, mice. The settings on record: i.p. 3x50 mg/kg before, 120 mg/kg 30 min before and 5 h after zymosan; 24 h; p<0.05. On the procedure:
Male BALB/c mice were randomly allocated into the following experimental groups (8 mice for each group):
The peptides were administered by an intraperitoneal (i.p.) route of administration as follows: • The first dose (50 mg per kg) was given 3 days before the zymosan injection. • The second dose (50 mg per kg) was given 2 days before the zymosan injection. • The third dose (50 mg per kg) was given 1 day before the zymosan injection. • The fourth dose (120 mg per kg) was given 30 minutes before the zymosan injection. • The fifth dose (120 mg per kg) was given 5 hours after the zymosan injection.
The peptides were formulated in D5W (5% dextrose in water, “D5W”). The vehicle control was D5W. At 24 hours after administration of zymosan, animals were euthanized and assessed for inflammation by an MDA (malondialdehyde) analysis of lung tissue. All the materials and drugs (apart from the peptides) were obtained from Sigma, Inc.
Malondialdehyde (MDA) formation was used to quantify lipid peroxidation, measured as thiobarbituric acid-reactive material. […] After cooling to room temperature, samples were cleared by centrifugation at 10,000 g for 10 min and absorbance was measured at 532 nm using 1,1,3,3-tetramethoxypropane as an external standard. The level of lipid peroxides was expressed as nM MDA/mg protein.

The test system of a further data set is IkappaBalpha. In words: Cytoplasmic stability of I-kappaBalpha in lung, zymosan-induced inflammation. It is filed as in vivo, mice. The conditions noted are these: lung tissue, 24 hours after zymosan. On the procedure:
Male BALB/c mice were randomly allocated into the following experimental groups:
The peptides were administered by an intraperitoneal (i.p.) route of administration as described in Example 3.
The peptides were formulated in D5W as described in Example 3. The vehicle control was D5W.
At 24 hours after administration of zymosan, animals were euthanized and assessed for inflammation by an NF-κB analysis of lung tissue.
Tissues were homogenized and nuclear extracts prepared via centrifugation. ELISA for IkappaBalpha was performed, using a series of standards in order to define absolute concentrations.

Data set [3] relates to JNK (c-Jun N-terminal kinases). Put plainly: Inhibition of oxidative stress (auranofin)-induced JNK phosphorylation in SH-SY5Y cells. It is filed as cell-based, Human. The conditions noted are these: auranofin 5 μM. The protocol:
(§1) Human neuroblastoma SH-SY5Y cells were maintained in Dulbecco's modified Eagle's medium (DMEM, Invitrogen) supplemented with 10% fetal bovine serum (Invitrogen), 100 μg/ml streptomycin and 100 U/ml penicillin G (Gibco). Cells were plated at a density of 6.25×10^4/cm^2 and incubated for 24 hours, after which they were exposed to different treatments.
(§2) SH-SY5Y cells were plated on 96-well plates and treated with Auranofin (AuF) (5 μM) for 30 min. Then the cells were washed with PBS and treated with either one of the peptides at the indicated concentrations. Twenty-four hours later, the cells were fixed with glutaraldehyde in final concentration of 0.5% for 10 min. Cells were washed 3 times with DDW dried over night, and washed once with borate buffer (0.1M, pH 8.5). The fixed cells were stained with 200 μl of 1% methylene blue dissolved in borate buffer for 1 hour. After extensive washing and drying, the color was extracted with 200 μl of 0.1 M HCl for 1 h at 37° C. and absorbance was read in spectrophotometer at 630 nm.
(§3) Twenty to thirty micrograms of protein samples were loaded on 10-12% SDS-PAGE gels. The proteins were then transferred electrophoretically to nitrocellulose (Whatman, Germany). The blots were blocked by incubation for 1 h at room temperature (RT) in TBS-T (25 mM Tris-HCl pH 7.4, 0.9% NaCl and 0.02% Tween-20) with 4% Difco skim milk (BD, USA), and incubated over-night at 4° C. with the primary antibody: pERK1/2 (Thr 202/Tyr204), mouse mAb, (1:6,000); p-SAPK/JNK (Thr183/Tyr185), rabbit mAb; SAPK/JNK, mouse mAb; p-p38MAP Kinase (Thr180/Tyr182), rabbit mAb; cleaved caspase 3, rabbit mAb. All antibodies were from Cell Signaling Tech. USA, used at 1:1000. Purified b Catenin, mouse mAb, (1:10,000; BD Transduction Laboratories, USA) diluted in 5% BSA, 0.04% Azide in TBS-T. Proteins were detected with Anti-Mouse or Anti-Rabbit IgG-HRP linked antibody (1:10,000; Cell Signaling, Tech. USA).

The subject of a further data set is p38 MAP Kinase. In words: Inhibition of oxidative stress (auranofin)-induced p38 phosphorylation in SH-SY5Y cells. It is filed as cell-based, Human. The settings on record: auranofin 5 μM. The protocol: as §1, §2, §3
The test system of data set [4] is cellularity of the peritoneal exudates. In words: Ovalbumin-induced hypersensitivity (allergic peritonitis): peritoneal cellularity. The data set is classed as in vivo, mice. The conditions noted are these: 125 mg/kg i.p. on days 13, 14, 15. The protocol: (§4) Male BALB/c mice (6-8 weeks old) were housed under specific pathogen-free conditions and maintained on a 12-hour light/dark cycle, with food and water ad libitum. All materials and drugs were obtained from Sigma, Inc.
(§5) Mice in Groups A, B, C, and E (n=10 per group) were sensitized with intraperitoneal (i.p.) 200 μl of sterile PBS containing 100 μg ovalbumin (OVA) and 1.6 mg alum on days 0 and 7, and challenged with intraperitoneal (i.p.) 200 μl of sterile PBS containing 10 μg ovalbumin (OVA) on day 14 in order to induce an experimental model of allergic peritonitis. Mice in Group F (n=10) were injected with intraperitoneal (i.p) 200 μl sterile PBS (“sham” group, no OVA and no Alum).
(§6) Mice in Groups A, B, and C, were treated with 150 μl of sterile PBS containing peptides DY-66, DY-65 and DY-70, respectively, at a dose of 125 mg/kg on days 13, 14, and 15 via an i.p. route of administration.
(§7) Mice in Groups E and F were treated with 150 μl of sterile PBS on days 13, 14, and 15 via an i.p. route of administration. On day 14 the test articles (or PBS vehicle) were injected 30 minutes before injecting the OVA.

The next data set relates to anti-OVA serum IgE. Put plainly: Ovalbumin-induced hypersensitivity: serum anti-OVA IgE. The settings on record: 125 mg/kg i.p. on days 13, 14, 15; blood day 16. It is filed as in vivo, mice. On the procedure:
as §4, §5, §6, §7
Blood taken on day 16 was tested for 1) serum anti-OVA IgE, 2) white blood cell count and differential (including absolute and percentage of eosinophils count). Serum was frozen at −80° C. for future optional blood tests.

The test system of data set [5] is HaCaT cells. In words: Hydrogen peroxide-induced HaCaT keratinocyte cytotoxicity (MTT). It is filed as cell-based. The settings on record: for protection of cell viability after hydrogen peroxide exposure (in words): 90 μM hydrogen peroxide 30 min, MTT after 72 hours. On the procedure: All five peptides were examined in this Example, and their activity was compared to the known CB3 peptide. HaCaT cells were seeded in 96-well plate at a concentration of 10×10^4 cells/ml for 24 hours. Then cells were incubated with the peptides at the indicated concentrations for 2.5 hours followed by washing with PBS and incubation with 90 μM hydrogen peroxide (without peptide) for 30 minutes. Cells were washed with PBS and incubated with culture medium containing peptide for 72 hours. Cell viability was tested by MTT. The effect of the peptides on cell viability was performed similarly without hydrogen peroxide exposure.

Data set [6] relates to HaCaT cells. In words: UVB-induced cytotoxicity in HaCaT cells (MTT). It is filed as cell-based. The settings on record: UVB 0.05 J/cm^2; MTT after 72 hours. On the procedure: HaCaT cells were seeded in 96-wells plate (10×10^4/ml) and incubated in 37° C., 6% CO2 for 24 hours. Cells were incubated with the peptides at the indicated concentrations for 2.5 hours and washed (PBS). Then 100 μl PBS were added to each well followed by UVB irradiation (0.05 J/cm^2). Cells were washed with PBS and incubated with culture medium (DMEM, 100 μl) containing the peptides. MTT assay was carried out after 72 hours.

Data set [7] is described as follows: Metal chelation: copper binding by mass spectra (ESI). The settings on record: 0.83 mM peptide, 1.66 mM CuSO4, 1 hour room temperature. The protocol:
(§8) All five peptides were examined for their ability to bind copper and ferric ions. 0.83 mM of each peptide were mixed with 1.66 mM of either FeCL3 or CuSO4. The mixtures were incubated for 1 hour at room temperature and further kept at ° 4 C until analysis. Samples were analyzed by mass spectra (ESI).

Data set [8] can be described thus: Metal chelation: ferric ion binding by mass spectra (ESI). The settings on record: 0.83 mM peptide, 1.66 mM FeCL3, 1 hour room temperature. The protocol: as §8
Data set [9] deals with carrageenan-induced hind paw swelling. Put plainly: Carrageenan-induced hind paw swelling. It is filed as in vivo, mice. The settings on record: 150 mg/kg i.p. 30 min prior to carrageenan. The protocol: The above new five peptides were examined for anti-inflammatory activity, and their activity was compared to that of peptide CB3. Male ICR mice received an i.p. administration of each of the tested peptide (150 mg/kg) 30 min prior to the injection of carrageenan into the sub-plantar area of both of the animal's hind paws. Carrageenan was dissolved in water at concentration of 3 mg/ml and injected at a volume of 50 μl. Hind paw thickness was measured by Mitutoyo® micrometer before carrageenan injection and afterward at intervals of 1 hour between each measurement. Swelling was calculated as the difference between the thickness of the hind paw measured at each time interval and its size at time 0 (before carrageenan injection). n=6 foot pads (3 animals) for each group.
A general note: The carrageenan paw model is a standard test of acute inflammation.

For the molecule `CC(=O)N[C@@H](CS)C(=O)O` [NAC, N-acetylcysteine, reference compound], the “ALT level compared to PBS-treated mice (in words)” value in data set [1] is recorded as “did not induce a significant change in ALT level”.
Still for that read-out and setting: the same measure for “N-acetyl-Cys-Gly-Pro-Cys-NH2 (Ac-CGPC-NH2; cysteine pairing not given here) [CB4, reference compound]”: “highly increased ALT level”.
In the case of “N-acetyl-Cys-Met-Lys-Cys-NH2 (Ac-CMKC-NH2; cysteine pairing not given here) [DY-70]”, the “effect on zymosan-induced elevation of MDA in lung tissue (in words)” value in data set [2] was “inhibited the elevation in MDA concentration”. Further, the “rank order of efficacy on cytoplasmic IkappaBalpha” value in the data set on IkappaBalpha was “DY-70>DY-65>DY-66”. The IC50 (usually the concentration that gives 50% inhibition) in [3] was 22.1 µM. The IC50 in the data set on p38 MAP Kinase amounted to 22.2 µM. Besides, in data set [4], the “effect on OVA-induced elevation of peritoneal exudate cellularity (in words)” value is “significantly reduced the elevation” and the “rank order of reduction of peritoneal exudate cellularity” value is “DY-65>DY-70>DY-66”. Further, in the data set on anti-OVA serum IgE, the “effect on OVA-induced elevation of anti-OVA serum IgE titer (in words)” value is recorded as “significantly reduced the elevation” and the “rank order of reduction of anti-OVA serum IgE titer” value is on record as “DY-65>DY-70>DY-66”. Further, in the data set with HaCaT cells [5], the “protection of cell viability after hydrogen peroxide exposure (in words)” value (“protection of cell viability” below) is recorded as “fully protected the cells from hydrogen peroxide”. Moreover, in the data set on HaCaT cells [6], the “protection against UVB-induced cytotoxicity (in words)” value is “protective effect at low concentrations”. Moreover, in data set [7], the “copper binding (in words)” value is on record as “low degree”. In addition, in [8], the “FeCl binding (in words)” value is “low degree”.
For “N-acetyl-Cys-Pro-Cys-NH2 (Ac-Cys-Pro-Cys-NH2; cysteine pairing not given here) [CB3, reference compound]”, the “hind paw swelling compared to control (in words)” value in [9] is “did not show a significant reduction”. In addition, the “protection of cell viability” value in the data set with HaCaT cells [5] is reported as “slightly elevated cell viability”. For the same molecule, the “ALT level compared to PBS-treated mice (in words)” value in [1] is “highly increased ALT level”.
As for “N-acetyl-Cys-γGlu-Cys-Cys-NH2 (Ac-C[γGlu]CC-NH2; cysteine pairing not given here) [DY-71]”, the IC50 in data set [3] came out at 82.3 µM; in the data set with p38 MAP Kinase it was 46.9 µM. Besides, in the data set with HaCaT cells [5], the “protection of cell viability” value is “slightly elevated cell viability”.
Turning to “N-acetyl-Cys-γGlu-Cys-NH2 (Ac-Cys-[γGlu]-Cys-NH2; cysteine pairing not given here) [DY-67]”, the “hind paw swelling compared to control (in words)” value in data set [9] is “Reduced swelling compared to control”. The half-maximal inhibitory concentration (IC50) in data set [3] was determined as 67.3 µM; in the data set on p38 MAP Kinase it was 36.5 µM. The “increase in cell viability” value in the data set with HaCaT cells [5] (concentrations of 1-10 μM) is listed as “about 45%”.
